Reference: US9751865B2, “Dihydro-hydantoin derivatives with herbicidal activity” (SYNGENTA PARTICIPATIONS AG, priority 2013, dated 2017)

Tests used:
Format in all cases: in vivo
Amaranthus retroflexus [1] = test: Post-emergence herbicidal activity, AMARE; parameters: key: 5=total damage to plant; 0=no damage to plant; conditions: application post-emergence, 1000 g/Ha, evaluated after 13 days, scale 0-5
Protocol: (§1) Seeds of a variety of test species were sown in standard soil in pots. After 8 days cultivation (post-emergence) under controlled conditions in a glasshouse (at 24/16° C., day/night; 14 hours light; 65% humidity), the plants were sprayed with an aqueous spray solution derived from the formulation of the technical active ingredient in acetone/water (50:50) solution containing 0.5% Tween 20 (polyoxyethelyene sorbitan monolaurate, CAS RN 9005-64-5). The test plants were then grown in a glasshouse under controlled conditions (at 24/16° C., day/night; 14 hours light; 65% humidity) and watered twice daily. After 13 days, the test was evaluated (5=total damage to plant; 0=no damage to plant).

Zea mays [2] = test: Post-emergence herbicidal activity, ZEAMX; parameters: key: 5=total damage to plant; 0=no damage to plant; conditions: application post-emergence, 1000 g/Ha, evaluated after 13 days, scale 0-5
Protocol: as §1

Amaranthus retroflexus [3] = test: Pre-emergence herbicidal activity, AMARE; parameters: key: 5=total damage to plant; 0=no damage to plant; conditions: application pre-emergence, 1000 g/Ha, evaluated after 13 days, scale 0-5
Protocol: as §1, with “After” for “After 8 days”, “for one day (pre-emergence)” for “(post-emergence)”

Abutilon theophrasti [4] = test: Post-emergence herbicidal activity, ABUTH; parameters: key: 5=total damage to plant; 0=no damage to plant; conditions: application post-emergence, 1000 g/Ha, evaluated after 13 days, scale 0-5
Protocol: as §1

Setaria faberi [5] = test: Post-emergence herbicidal activity, SETFA; parameters: key: 5=total damage to plant; 0=no damage to plant; conditions: application post-emergence, 1000 g/Ha, evaluated after 13 days, scale 0-5
Protocol: as §1

Echinochloa crus-galli [6] = test: Pre-emergence herbicidal activity, ECHCG; parameters: key: 5=total damage to plant; 0=no damage to plant; conditions: application pre-emergence, 1000 g/Ha, evaluated after 13 days, scale 0-5
Protocol: as §1, with “After” for “After 8 days”, “for one day (pre-emergence)” for “(post-emergence)”

Alopecurus myosuroides [7] = test: Pre-emergence herbicidal activity, ALOMY; conditions: application pre-emergence, 1000 g/Ha, evaluated after 13 days, scale 0-5
Protocol: as §1, with “After” for “After 8 days”, “for one day (pre-emergence)” for “(post-emergence)”

Echinochloa crus-galli [8] = test: Post-emergence herbicidal activity, ECHCG; parameters: key: 5=total damage to plant; 0=no damage to plant; conditions: application post-emergence, 1000 g/Ha, evaluated after 13 days, scale 0-5
Protocol: as §1

Setaria faberi [9] = test: Pre-emergence herbicidal activity, SETFA; parameters: key: 5=total damage to plant; 0=no damage to plant; conditions: application pre-emergence, 1000 g/Ha, evaluated after 13 days, scale 0-5
Protocol: as §1, with “After” for “After 8 days”, “for one day (pre-emergence)” for “(post-emergence)”

Zea mays [10] = test: Pre-emergence herbicidal activity, ZEAMX; parameters: key: 5=total damage to plant; 0=no damage to plant; conditions: application pre-emergence, 1000 g/Ha, evaluated after 13 days, scale 0-5
Protocol: as §1, with “After” for “After 8 days”, “for one day (pre-emergence)” for “(post-emergence)”

Abutilon theophrasti [11] = test: Pre-emergence herbicidal activity, ABUTH; parameters: key: 5=total damage to plant; 0=no damage to plant; conditions: application pre-emergence, 1000 g/Ha, evaluated after 13 days, scale 0-5
Protocol: as §1, with “After” for “After 8 days”, “for one day (pre-emergence)” for “(post-emergence)”

Alopecurus myosuroides [12] = test: Post-emergence herbicidal activity, ALOMY; parameters: key: 5=total damage to plant; 0=no damage to plant; conditions: application post-emergence, 1000 g/Ha, evaluated after 13 days, scale 0-5
Protocol: as §1

| SMILES | AMARE damage score (Amaranthus retroflexus [1]) | ZEAMX damage score (Zea mays [2]) | AMARE damage score (Amaranthus retroflexus [3]) | ABUTH damage score (Abutilon theophrasti [4]) | SETFA damage score (Setaria faberi [5]) | ECHCG damage score (Echinochloa crus-galli [6]) | ALOMY damage score (Alopecurus myosuroides [7]) | ECHCG damage score (Echinochloa crus-galli [8]) | SETFA damage score (Setaria faberi [9]) | ZEAMX damage score (Zea mays [10]) | ABUTH damage score (Abutilon theophrasti [11]) | ALOMY damage score (Alopecurus myosuroides [12]) |
| --- | --- | --- | --- | --- | --- | --- | --- | --- | --- | --- | --- | --- |
| CON1C(=O)N(c2cc3n(n2)CCC3(C)C)C(O)C1C (stereo not drawn) [Compound A1] | 5 | 5 | 5 | 5 | 5 | 5 | 4 | 5 | 4 | 3 | 5 | 4 |
| CC1C(O)N(c2cc(C(F)(F)F)n(C)n2)C(=O)N1C (stereo not drawn) [Compound A2, 4-hydroxy-1,5-dimethyl-3-[1-methyl-5-(trifluoromethyl)pyrazol-3-yl]imidazolidin-2-one] | 5 | 4 | 5 | 5 | 5 | 4 | 4 | 5 | 4 | 4 | 5 | 5 |
| CON1C(=O)N(c2cc(C(C)(C)C)n(C)n2)C(O)C1C (stereo not drawn) [Compound A3] | 5 | 4 | 5 | 5 | 5 | 4 | 4 | 5 | 4 | 3 | 5 | 5 |
| CON1C(=O)N(c2cc(C(F)(F)F)n(C)n2)C(O)C1C (stereo not drawn) [Compound A4, 4-hydroxy-1-methoxy-5-methyl-3-[1-methyl-5-(trifluoromethyl)pyrazol-3-yl]imidazolidin-2-one] | 5 | 5 | 5 | 5 | 5 | 4 | 4 | 5 | 4 | 3 | 5 | 5 |
| CN1CC(O)N(c2nn(C)c(C(C)(C)C)c2C#N)C1=O (stereo not drawn) [Compound A5] | 5 | 2 | 4 | 4 | 3 | 0 | 1 | 3 | 0 | 0 | 2 | 3 |
| CC1C(O)N(c2nn(C)c(C(C)(C)C)c2C#N)C(=O)N1C (stereo not drawn) [Compound A6] | 5 | 2 | 2 | 5 | 5 | 2 | 1 | 4 | 2 | 1 | 5 | 4 |
| CC1C(O)N(c2cc(C(C)(C)C)n(C)n2)C(=O)N1C (stereo not drawn) [Compound A7] | 5 | 4 | 5 | 5 | 5 | 4 | 4 | 5 | 5 | 2 | 4 | 4 |
| CCOC1C(O)N(c2cc(C(F)(F)F)n(C)n2)C(=O)N1C (stereo not drawn) [Compound A8, 5-ethoxy-4-hydroxy-1-methyl-3-[1-methyl-5-(trifluoromethyl)pyrazol-3-yl]imidazolidin-2-one] | 5 | 4 | 5 | 5 | 5 | 5 | 4 | 5 | 4 | 2 | 5 | 5 |
| COC(C)(C)c1cc(N2C(=O)N(C)CC2O)nn1C (stereo not drawn) [Compound A18] | 5 | 2 | 5 | 5 | 5 | 4 |  | 4 | 4 | 2 | 5 |  |
| CON1C(=O)N(c2cc(C(C)(C)OC)n(C)n2)C(O)C1C (stereo not drawn) [Compound A19] | 5 | 3 | 5 | 5 | 5 | 4 |  | 5 | 4 | 2 | 5 |  |
| COC(C)(C)c1cc(N2C(=O)N(C)C(C)C2O)nn1C (stereo not drawn) [Compound A20] | 5 | 3 | 5 | 5 | 4 | 4 |  | 5 | 4 | 2 | 5 |  |
| COCC1C(O)N(c2cc(C(C)(C)OC)n(C)n2)C(=O)N1C (stereo not drawn) [Compound A21] | 5 | 2 | 5 | 5 | 4 | 4 |  | 3 | 4 | 2 | 5 |  |
| COCC1C(O)N(c2cc(C(C)(C)C)n(C)n2)C(=O)N1C (stereo not drawn) [Compound A22] | 5 | 4 | 5 | 5 | 5 | 1 | 2 | 5 | 1 | 0 | 5 |  |
